28 compounds from patent US10647713B2 (Nimbus Lakshmi, Inc., priority 2016, dated 2020) can be followed below.

The structures appear in SMILES notation. pKd: −log10 of the molar value.

human TYK2 (JH2domain-pseudokinase), sequence (P29597 556-888): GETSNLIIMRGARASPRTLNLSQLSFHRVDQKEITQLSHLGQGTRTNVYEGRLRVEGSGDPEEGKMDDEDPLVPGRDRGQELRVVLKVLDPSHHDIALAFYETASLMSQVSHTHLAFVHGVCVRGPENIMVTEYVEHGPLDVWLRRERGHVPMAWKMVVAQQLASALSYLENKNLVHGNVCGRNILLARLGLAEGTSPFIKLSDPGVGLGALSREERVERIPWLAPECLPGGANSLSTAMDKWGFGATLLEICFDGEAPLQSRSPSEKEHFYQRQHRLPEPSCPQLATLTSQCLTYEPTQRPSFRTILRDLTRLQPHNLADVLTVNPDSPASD

The experiment concerns the target human TYK2 (JH2domain-pseudokinase) (Homo sapiens (Human), UniProt P29597). Briefly: TYK2 JH2 Domain Binding Assay (KINOMEscan, DiscoveRx). Conditions: 11-point dilution, duplicate. A digest of the protocol:
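Kd from duplicate 11-point 3-fold dilutions starting at 30,000 nM, fitted by Hill equation with slope fixed at −1. Compounds (final 0.9% DMSO) displace DNA-tagged HEK293-expressed TYK2 JH2 fusion (<0.1 nM) from ligand-coated beads over 1 h at room temperature; eluted kinase read by qPCR.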
Take `Cc1nc2c(Nc3ccc(C4CCCO4)cc3S(C)(=O)=O)cc(Nc3ccc(C(C)C)c(C#N)n3)nc2[nH]1` (stereo not shown) [I-575, 3-isopropyl-6-((2-methyl-7-((2-(methylsulfonyl)-4-(tetrahydrofuran-2-yl)phenyl)amino)-3H-imidazo[4,5-b]pyridin-5-yl)amino)picolinonitrile]: the pKd is 9.30 to 10.00.
`COc1c(Nc2cc(NC(=O)C3CC3)nc3[nH]c(C(F)F)nc23)ccc(-c2cc(C)n(C)n2)c1F` [I-576, N-(2-(difluoromethyl)-7-((4-(1,5-dimethyl-1H-pyrazol-3-yl)-3-fluoro-2-methoxyphenyl)amino)-3H-imidazo[4,5-b]pyridin-5-yl)cyclopropanecarboxamide] had a pKd of under 8.00.
`COc1c(Nc2cc(NC(=O)C3CC3)nc3[nH]c(C)nc23)ccc(-c2cc(C)n(C)n2)c1F` [I-577, N-(7-((4-(1,5-dimethyl-1H-pyrazol-3-yl)-3-fluoro-2-methoxyphenyl)amino)-2-methyl-3H-imidazo[4,5-b]pyridin-5-yl)cyclopropanecarboxamide] had a pKd of under 8.00.
The compound `Cc1cc(Nc2cc(Nc3ccc(-c4nc(C)sc4C)cc3S(C)(=O)=O)c3nc(C(F)F)[nH]c3n2)nc(C)n1` [I-578, 2-(difluoromethyl)-N5-(2,6-dimethylpyrimidin-4-yl)-N7-(4-(2,5-dimethylthiazol-4-yl)-2-(methylsulfonyl)phenyl)-3H-imidazo[4,5-b]pyridine-5,7-diamine] showed a pKd of 9.30 to 10.00.
For `Cc1cc(Nc2cc(Nc3ccc(-c4nc(C)sc4C)cc3S(C)(=O)=O)c3nc(C)[nH]c3n2)nc(C)n1` [I-579, N5-(2,6-dimethylpyrimidin-4-yl)-N7-(4-(2,5-dimethylthiazol-4-yl)-2-(methylsulfonyl)phenyl)-2-methyl-3H-imidazo[4,5-b]pyridine-5,7-diamine], the pKd was over 10.00.
The value for `Cc1nc(-c2ccc(Nc3cc(Nc4cnc(C)c(C)n4)nc4[nH]c(C(F)F)nc34)c(S(C)(=O)=O)c2)c(C)s1` [I-580, 2-(difluoromethyl)-N5-(5,6-dimethylpyrazin-2-yl)-N7-(4-(2,5-dimethylthiazol-4-yl)-2-(methylsulfonyl)phenyl)-3H-imidazo[4,5-b]pyridine-5,7-diamine] was 9.30 to 10.00; that for `Cc1nc2c(Nc3ccc(-c4nc(C)sc4C)cc3S(C)(=O)=O)cc(Nc3cnc(C)c(C)n3)nc2[nH]1` [I-581, N5-(5,6-dimethylpyrazin-2-yl)-N7-(4-(2,5-dimethylthiazol-4-yl)-2-(methylsulfonyl)phenyl)-2-methyl-3H-imidazo[4,5-b]pyridine-5,7-diamine] was 9.30 to 10.00.
Consider `COc1cc(-c2nc(C)c(C)s2)ccc1Nc1cc(NC(=O)C2CC2)nc2[nH]c(C(F)F)nc12` [I-582, N-(2-(difluoromethyl)-7-((4-(4,5-dimethylthiazol-2-yl)-2-methoxyphenyl)amino)-3H-imidazo[4,5-b]pyridin-5-yl)cyclopropanecarboxamide], for which the pKd is under 8.00.
The value for `Cc1nc2c(Nc3ccc(-c4cc(C)n(C)n4)cc3S(C)(=O)=O)cc(Nc3cccc(C#N)n3)nc2[nH]1` [I-583, 6-((7-((4-(1,5-dimethyl-1H-pyrazol-3-yl)-2-(methylsulfonyl)phenyl)amino)-2-methyl-3H-imidazo[4,5-b]pyridin-5-yl)amino)picolinonitrile] was 9.30 to 10.00; that for `COCCCc1cnc(-c2ccc(Nc3cc(NC(=O)C4CC4)nc4[nH]c(C(F)F)nc34)c(S(C)(=O)=O)c2)s1` [I-584, N-(2-(difluoromethyl)-7-((4-(5-(3-methoxypropyl)thiazol-2-yl)-2-(methylsulfonyl)phenyl)amino)-3H-imidazo[4,5-b]pyridin-5-yl)cyclopropanecarboxamide] was 9.30 to 10.00; that for `Cc1nc2c(Nc3ccc(-c4cnn(C)c4C)cc3S(C)(=O)=O)cc(Nc3cccc(C(F)(F)F)n3)nc2[nH]1` [I-585, N7-(4-(1,5-dimethyl-1H-pyrazol-4-yl)-2-(methylsulfonyl)phenyl)-2-methyl-N5-(6-(trifluoromethyl)pyridin-2-yl)-3H-imidazo[4,5-b]pyridine-5,7-diamine] was 9.30 to 10.00.
`Cc1nc2c(Nc3ccc([C@H]4CCCCO4)cc3S(C)(=O)=O)cc(Nc3cc4n(n3)CCOC4)nc2[nH]1` [I-587, (R)—N5-(6,7-dihydro-4H-pyrazolo[5,1-c][1,4]oxazin-2-yl)-2-methyl-N7-(2-(methylsulfonyl)-4-(tetrahydro-2H-pyran-2-yl)phenyl)-3H-imidazo[4,5-b]pyridine-5,7-diamine] had a pKd of 9.30 to 10.00.
The value for `CS(=O)(=O)c1cc(C2COCCO2)ccc1Nc1cc(NC(=O)C2CC2)nc2[nH]c(C(F)F)nc12` (stereo not shown) [I-588, N-(7-((4-(1,4-dioxan-2-yl)-2-(methylsulfonyl)phenyl)amino)-2-(difluoromethyl)-3H-imidazo[4,5-b]pyridin-5-yl)cyclopropanecarboxamide] was 9.30 to 10.00; that for `COc1cc(-c2cc(C)n(C)n2)ccc1Nc1cc(NC(=O)C2CC2)nc2[nH]c(C(F)F)nc12` [I-589, N-(2-(difluoromethyl)-7-((4-(1,5-dimethyl-1H-pyrazol-3-yl)-2-methoxyphenyl)amino)-3H-imidazo[4,5-b]pyridin-5-yl)cyclopropanecarboxamide] was 8.00 to 9.00; that for `COc1cc(-c2cc(C)n(C)n2)ccc1Nc1cc(NC(=O)C2CC2)nc2[nH]c(C)nc12` [I-590, N-(7-((4-(1,5-dimethyl-1H-pyrazol-3-yl)-2-methoxyphenyl)amino)-2-methyl-3H-imidazo[4,5-b]pyridin-5-yl)cyclopropanecarboxamide] was 8.00 to 9.00.
`Cc1nc2c(Nc3ccc([C@H]4CCC(C)(C)O4)cc3S(C)(=O)=O)cc(NC(=O)C3CC3)nc2[nH]1` [I-591, (R)—N-(7-((4-(5,5-dimethyltetrahydrofuran-2-yl)-2-(methylsulfonyl)phenyl)amino)-2-methyl-3H-imidazo[4,5-b]pyridineyl)cyclopropanecarboxamide]: the negative logarithm of the Kd (pKd) was 9.30 to 10.00.
Turning to `Cc1nc2c(Nc3ccc([C@@H]4CCC(C)(C)O4)cc3S(C)(=O)=O)cc(NC(=O)C3CC3)nc2[nH]1` [I-592, (S)—N-(7-((4-(5,5-dimethyltetrahydrofuran-2-yl)-2-(methylsulfonyl)phenyl)amino)-2-methyl-3H-imidazo[4,5-b]pyridin-5-yl)cyclopropanecarboxamide], the pKd is 9.00 to 9.30.
Consider `CS(=O)(=O)c1cc([C@H]2CCC(F)(F)CO2)ccc1Nc1cc(NC(=O)C2CC2)nc2[nH]c(C(F)F)nc12` [I-593, (R)—N-(2-(difluoromethyl)-7-((4-(5,5-difluorotetrahydro-2H-pyran-2-yl)-2-(methylsulfonyl)phenyl)amino)-3H-imidazo[4,5-b]pyridin-5-yl)cyclopropanecarboxamide], for which the pKd was 8.00 to 9.00.
In turn, `CS(=O)(=O)c1cc([C@@H]2CCC(F)(F)CO2)ccc1Nc1cc(NC(=O)C2CC2)nc2[nH]c(C(F)F)nc12` [I-594, (S)—N-(2-(difluoromethyl)-7-((4-(5,5-difluorotetrahydro-2H-pyran-2-yl)-2-(methylsulfonyl)phenyl)amino)-3H-imidazo[4,5-b]pyridin-5-yl)cyclopropanecarboxamide] showed a negative-log Kd (pKd) of 9.30 to 10.00.
With `Cc1nc2c(Nc3ccc([C@H]4CCCO4)cc3S(C)(=O)=O)cc(Nc3ccc(C(C)C)c(C#N)n3)nc2[nH]1` [I-595, (R)-3-isopropyl-6-((2-methyl-7-((2-(methylsulfonyl)-4-(tetrahydrofuran-2-yl)phenyl)amino)-3H-imidazo[4,5-b]pyridin-5-yl)amino)picolinonitrile], the pKd is 9.30 to 10.00.
`Cc1nc2c(Nc3ccc([C@@H]4CCCO4)cc3S(C)(=O)=O)cc(Nc3ccc(C(C)C)c(C#N)n3)nc2[nH]1` [I-596, (S)-3-isopropyl-6-((2-methyl-7-((2-(methylsulfonyl)-4-(tetrahydrofuran-2-yl)phenyl)amino)-3H-imidazo[4,5-b]pyridin-5-yl)amino)picolinonitrile] showed a pKd of 9.00 to 9.30.
As for `Cc1nc2c(Nc3ccccc3S(C)(=O)=O)cc(Nc3cc4c(nn3)CCC4)nc2[nH]1` [I-597, N5-(6,7-dihydro-5H-cyclopenta[c]pyridazin-3-yl)-2-methyl-N7-(2-(methylsulfonyl)phenyl)-3H-imidazo[4,5-b]pyridine-5,7-diamine], the pKd is 9.30 to 10.00.
For the compound `COc1c(Nc2cc(Nc3cccc(C#N)n3)nc3[nH]c(C(F)F)nc23)cccc1-c1noc(C)n1` [I-598, 6-((2-(difluoromethyl)-7-((2-methoxy-3-(5-methyl-1,2,4-oxadiazol-3-yl)phenyl)amino)-3H-imidazo[4,5-b]pyridin-5-yl)amino)picolinonitrile], the negative-log Kd (pKd) is 9.00 to 9.30.
Compound `CS(=O)(=O)c1ccccc1Nc1cc(Nc2cccc(C(F)(F)F)n2)nc2[nH]c(C(F)F)nc12` [I-599] showed a pKd of 9.00 to 9.30.
The result for `Cc1nc2c(Nc3ccccc3S(C)(=O)=O)cc(Nc3cccc(C(F)(F)F)n3)nc2[nH]1` [I-600, 2-methyl-N7-(2-(methylsulfonyl)phenyl)-N5-(6-(trifluoromethyl)pyridin-2-yl)-3H-imidazo[4,5-b]pyridine-5,7-diamine] reads 9.30 to 10.00; that for `Cc1nc2c(Nc3ccc(C4CCC(C)(C)CO4)cc3S(C)(=O)=O)cc(Nc3cnc(C)c(C)n3)nc2[nH]1` (stereo not shown) [I-601, N5-(5,6-dimethylpyrazin-2-yl)-N7-(4-(5,5-dimethyltetrahydro-2H-pyran-2-yl)-2-(methylsulfonyl)phenyl)-2-methyl-3H-imidazo[4,5-b]pyridine-5,7-diamine], 9.00 to 9.30; that for `CS(=O)(=O)c1ccccc1Nc1cc(Nc2cccc(C#N)n2)nc2[nH]c(C(F)F)nc12` [I-602, 6-((2-(difluoromethyl)-7-((2-(methylsulfonyl)phenyl)amino)-3H-imidazo[4,5-b]pyridin-5-yl)amino)picolinonitrile], over 10.00.
The compound `Cc1nc2c(Nc3ccccc3S(C)(=O)=O)cc(Nc3cccc(C#N)n3)nc2[nH]1` [I-603, 6-((2-methyl-7-((2-(methylsulfonyl)phenyl)amino)-3H-imidazo[4,5-b]pyridin-5-yl)amino)picolinonitrile] showed a pKd of 9.30 to 10.00.

As usually defined, the pKd is the negative decadic logarithm of the Kd, by convention in mol/L. A higher pKd goes with a small Kd.
